Among the data in publication PMC4699737, “TrpA1 Regulates Defecation of Food-Borne Pathogens under the Control of the Duox Pathway” (PLoS Genetics, 2016) are EC50 values, retold here.

Experiment in all cases: two-electrode voltage clamp, Xenopus oocytes, Hill fit
Holding throughout (format): cell-based
Holding throughout (details): agonist (activation); -60 mV, pH 7.6; currents normalized to 100 ppm NaOCl, steady state
For orientation: In two-electrode clamp one electrode senses voltage and the other passes current.

One assay deals with T1, TRPA1(A)10a (Drosophila melanogaster, UniProt G8IQ59).
T1 construct: full-length splice isoform, TrpA1 cRNA injected in Xenopus laevis oocytes
T1 sequence (G8IQ59 1-1232): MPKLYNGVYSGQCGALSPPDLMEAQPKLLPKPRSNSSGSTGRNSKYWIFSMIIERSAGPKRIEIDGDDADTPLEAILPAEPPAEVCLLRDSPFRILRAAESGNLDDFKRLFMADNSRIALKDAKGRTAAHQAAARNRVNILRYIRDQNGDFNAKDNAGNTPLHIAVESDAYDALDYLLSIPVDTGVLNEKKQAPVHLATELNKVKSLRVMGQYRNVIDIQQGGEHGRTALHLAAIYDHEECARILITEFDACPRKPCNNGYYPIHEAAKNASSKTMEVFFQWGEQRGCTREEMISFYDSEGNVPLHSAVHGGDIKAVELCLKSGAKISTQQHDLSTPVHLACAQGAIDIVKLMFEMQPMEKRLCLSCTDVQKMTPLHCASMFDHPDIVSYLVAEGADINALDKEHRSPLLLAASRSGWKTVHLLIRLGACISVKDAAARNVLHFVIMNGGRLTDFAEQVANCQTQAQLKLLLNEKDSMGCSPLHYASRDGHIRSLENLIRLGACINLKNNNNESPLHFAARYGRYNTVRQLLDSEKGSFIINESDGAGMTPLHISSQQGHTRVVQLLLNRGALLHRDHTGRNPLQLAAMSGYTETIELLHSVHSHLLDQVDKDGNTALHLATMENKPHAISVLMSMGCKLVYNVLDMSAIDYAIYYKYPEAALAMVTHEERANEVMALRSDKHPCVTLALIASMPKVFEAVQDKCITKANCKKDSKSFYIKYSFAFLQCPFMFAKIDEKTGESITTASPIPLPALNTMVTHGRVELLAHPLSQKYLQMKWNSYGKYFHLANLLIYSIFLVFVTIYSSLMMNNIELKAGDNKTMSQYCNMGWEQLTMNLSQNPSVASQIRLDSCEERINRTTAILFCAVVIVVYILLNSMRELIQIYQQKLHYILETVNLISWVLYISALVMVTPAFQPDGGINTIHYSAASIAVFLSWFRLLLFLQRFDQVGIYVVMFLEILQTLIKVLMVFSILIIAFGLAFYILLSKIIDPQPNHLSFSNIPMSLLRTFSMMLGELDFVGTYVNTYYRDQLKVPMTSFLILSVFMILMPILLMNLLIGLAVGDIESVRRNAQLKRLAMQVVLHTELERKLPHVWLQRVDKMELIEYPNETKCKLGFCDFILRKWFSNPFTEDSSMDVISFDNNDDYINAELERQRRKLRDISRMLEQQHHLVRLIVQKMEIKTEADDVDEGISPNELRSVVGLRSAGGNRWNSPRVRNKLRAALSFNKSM

For a further assay, the target named is T2, hsTRPA1 (Homo sapiens, UniProt O75762).
T2 construct: gene TRPA1; full-length, cRNA injected in Xenopus laevis oocytes
T2 sequence (O75762 whole entry): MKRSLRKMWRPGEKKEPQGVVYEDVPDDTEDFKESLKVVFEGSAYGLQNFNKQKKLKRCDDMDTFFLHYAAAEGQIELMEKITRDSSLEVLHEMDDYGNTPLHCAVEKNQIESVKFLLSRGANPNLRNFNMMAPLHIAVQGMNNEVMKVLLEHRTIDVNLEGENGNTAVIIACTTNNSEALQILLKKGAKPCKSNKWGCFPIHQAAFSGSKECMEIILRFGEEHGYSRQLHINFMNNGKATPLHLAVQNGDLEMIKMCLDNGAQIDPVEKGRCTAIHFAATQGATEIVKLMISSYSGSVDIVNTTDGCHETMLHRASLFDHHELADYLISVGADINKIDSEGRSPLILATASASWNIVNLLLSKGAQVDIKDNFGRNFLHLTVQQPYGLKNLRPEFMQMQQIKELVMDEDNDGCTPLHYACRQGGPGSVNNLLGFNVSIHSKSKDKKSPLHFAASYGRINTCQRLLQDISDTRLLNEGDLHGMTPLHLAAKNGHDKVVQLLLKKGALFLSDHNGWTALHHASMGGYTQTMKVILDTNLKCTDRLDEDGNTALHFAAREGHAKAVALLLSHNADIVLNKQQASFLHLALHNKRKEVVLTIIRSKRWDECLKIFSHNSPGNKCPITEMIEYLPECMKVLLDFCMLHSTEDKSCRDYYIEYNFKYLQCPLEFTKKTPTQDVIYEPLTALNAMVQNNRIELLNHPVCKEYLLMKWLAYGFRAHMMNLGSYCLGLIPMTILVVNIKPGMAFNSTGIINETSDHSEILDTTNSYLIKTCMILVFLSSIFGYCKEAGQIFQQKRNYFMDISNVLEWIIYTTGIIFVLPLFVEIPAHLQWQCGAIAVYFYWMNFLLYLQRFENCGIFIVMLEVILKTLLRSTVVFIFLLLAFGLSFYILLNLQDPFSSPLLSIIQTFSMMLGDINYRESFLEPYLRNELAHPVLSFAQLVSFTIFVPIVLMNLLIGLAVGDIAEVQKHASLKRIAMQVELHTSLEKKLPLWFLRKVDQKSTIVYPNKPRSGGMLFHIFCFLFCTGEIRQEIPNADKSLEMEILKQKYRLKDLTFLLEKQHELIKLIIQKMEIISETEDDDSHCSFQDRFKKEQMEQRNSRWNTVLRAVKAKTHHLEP

A further assay concerns the target T3, TRPA1(A)10b (Drosophila melanogaster, UniProt H0USS9).
T3 construct: full-length splice isoform, TrpA1 cRNA injected in Xenopus laevis oocytes
T3 sequence (H0USS9 1-1231): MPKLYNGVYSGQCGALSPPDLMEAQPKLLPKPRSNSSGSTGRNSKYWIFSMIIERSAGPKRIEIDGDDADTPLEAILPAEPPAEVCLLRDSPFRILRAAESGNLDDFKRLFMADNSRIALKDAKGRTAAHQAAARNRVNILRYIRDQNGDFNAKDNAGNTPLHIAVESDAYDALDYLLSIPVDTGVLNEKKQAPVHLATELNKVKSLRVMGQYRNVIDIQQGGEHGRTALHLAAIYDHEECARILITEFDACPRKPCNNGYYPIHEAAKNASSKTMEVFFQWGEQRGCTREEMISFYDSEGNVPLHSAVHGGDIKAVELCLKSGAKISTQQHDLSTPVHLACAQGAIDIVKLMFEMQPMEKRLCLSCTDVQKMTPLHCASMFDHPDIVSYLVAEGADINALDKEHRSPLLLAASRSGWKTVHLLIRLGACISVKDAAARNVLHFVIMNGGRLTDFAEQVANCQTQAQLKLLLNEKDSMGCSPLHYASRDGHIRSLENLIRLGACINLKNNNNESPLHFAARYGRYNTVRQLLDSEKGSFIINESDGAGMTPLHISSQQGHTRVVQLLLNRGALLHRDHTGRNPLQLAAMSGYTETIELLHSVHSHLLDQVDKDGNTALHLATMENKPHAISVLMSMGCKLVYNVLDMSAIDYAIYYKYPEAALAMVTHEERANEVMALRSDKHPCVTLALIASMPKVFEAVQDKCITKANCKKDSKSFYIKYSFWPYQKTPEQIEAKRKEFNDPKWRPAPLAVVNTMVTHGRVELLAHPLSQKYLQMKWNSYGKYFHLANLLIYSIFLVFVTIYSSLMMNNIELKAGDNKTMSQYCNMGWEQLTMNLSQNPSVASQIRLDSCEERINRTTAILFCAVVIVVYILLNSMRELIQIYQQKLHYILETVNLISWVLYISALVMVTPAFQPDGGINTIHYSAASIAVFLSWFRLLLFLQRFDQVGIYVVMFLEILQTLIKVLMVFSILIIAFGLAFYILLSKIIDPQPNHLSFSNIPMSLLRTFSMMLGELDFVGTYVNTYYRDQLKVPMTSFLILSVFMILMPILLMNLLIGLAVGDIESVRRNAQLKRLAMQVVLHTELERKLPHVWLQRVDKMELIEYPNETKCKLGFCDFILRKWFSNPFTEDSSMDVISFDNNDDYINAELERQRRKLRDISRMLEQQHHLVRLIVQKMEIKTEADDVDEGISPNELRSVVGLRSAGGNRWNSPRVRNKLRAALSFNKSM
The text has this:
two-electrode voltage clamp, Xenopus oocytes, Hill fit on TRPA1(A)10b | The data were fitted to Hill equation to determine EC50s

In the next assay the target is T4, TRPA1(B)10a (Drosophila melanogaster, UniProt Q7Z020).
T4 construct: full-length splice isoform, TrpA1 cRNA injected in Xenopus laevis oocytes
T4 sequence (Q7Z020 1-1197): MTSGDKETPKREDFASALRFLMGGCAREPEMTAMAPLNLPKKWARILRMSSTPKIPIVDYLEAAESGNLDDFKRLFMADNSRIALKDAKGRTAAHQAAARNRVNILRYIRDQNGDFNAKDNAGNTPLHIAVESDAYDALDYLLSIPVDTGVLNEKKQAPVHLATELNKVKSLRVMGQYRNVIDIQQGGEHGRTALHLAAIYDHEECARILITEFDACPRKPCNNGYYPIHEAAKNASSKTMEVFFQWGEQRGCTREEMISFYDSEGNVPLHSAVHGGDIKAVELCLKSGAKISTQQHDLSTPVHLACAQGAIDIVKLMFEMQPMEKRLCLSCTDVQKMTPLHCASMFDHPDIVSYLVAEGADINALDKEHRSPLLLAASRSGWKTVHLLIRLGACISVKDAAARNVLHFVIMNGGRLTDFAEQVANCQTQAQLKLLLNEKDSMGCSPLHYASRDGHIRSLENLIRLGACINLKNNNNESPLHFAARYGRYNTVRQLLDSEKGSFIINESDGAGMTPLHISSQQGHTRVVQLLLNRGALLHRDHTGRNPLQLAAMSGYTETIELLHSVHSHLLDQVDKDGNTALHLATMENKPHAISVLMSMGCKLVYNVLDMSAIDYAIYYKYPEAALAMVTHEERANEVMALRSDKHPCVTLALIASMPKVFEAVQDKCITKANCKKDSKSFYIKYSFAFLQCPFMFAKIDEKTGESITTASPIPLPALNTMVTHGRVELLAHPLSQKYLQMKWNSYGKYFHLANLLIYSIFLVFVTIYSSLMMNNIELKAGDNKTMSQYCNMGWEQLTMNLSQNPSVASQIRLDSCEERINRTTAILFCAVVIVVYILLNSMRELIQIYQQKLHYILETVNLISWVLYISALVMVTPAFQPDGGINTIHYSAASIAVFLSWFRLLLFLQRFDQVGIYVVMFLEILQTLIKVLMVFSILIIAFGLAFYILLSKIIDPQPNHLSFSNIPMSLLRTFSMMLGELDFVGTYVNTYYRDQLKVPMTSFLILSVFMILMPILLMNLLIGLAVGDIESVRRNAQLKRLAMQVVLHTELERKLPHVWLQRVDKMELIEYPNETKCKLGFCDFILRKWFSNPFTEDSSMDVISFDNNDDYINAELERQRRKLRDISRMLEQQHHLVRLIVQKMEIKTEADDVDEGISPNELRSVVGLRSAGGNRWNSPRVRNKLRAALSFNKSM

Take `OCl` [NaOCl]: the EC50 on TRPA1(A)10a came to 5.7±0.6 ppm; at hsTRPA1 it was 21.1±3.6 ppm; at TRPA1(A)10b, 1.7±0.7 ppm; on TRPA1(B)10a it was 13.2±1.0 ppm.
